The test addresses T1, SIRT1 (Homo sapiens, UniProt Q96EB6).
T1 sequence (Q96EB6 1-747): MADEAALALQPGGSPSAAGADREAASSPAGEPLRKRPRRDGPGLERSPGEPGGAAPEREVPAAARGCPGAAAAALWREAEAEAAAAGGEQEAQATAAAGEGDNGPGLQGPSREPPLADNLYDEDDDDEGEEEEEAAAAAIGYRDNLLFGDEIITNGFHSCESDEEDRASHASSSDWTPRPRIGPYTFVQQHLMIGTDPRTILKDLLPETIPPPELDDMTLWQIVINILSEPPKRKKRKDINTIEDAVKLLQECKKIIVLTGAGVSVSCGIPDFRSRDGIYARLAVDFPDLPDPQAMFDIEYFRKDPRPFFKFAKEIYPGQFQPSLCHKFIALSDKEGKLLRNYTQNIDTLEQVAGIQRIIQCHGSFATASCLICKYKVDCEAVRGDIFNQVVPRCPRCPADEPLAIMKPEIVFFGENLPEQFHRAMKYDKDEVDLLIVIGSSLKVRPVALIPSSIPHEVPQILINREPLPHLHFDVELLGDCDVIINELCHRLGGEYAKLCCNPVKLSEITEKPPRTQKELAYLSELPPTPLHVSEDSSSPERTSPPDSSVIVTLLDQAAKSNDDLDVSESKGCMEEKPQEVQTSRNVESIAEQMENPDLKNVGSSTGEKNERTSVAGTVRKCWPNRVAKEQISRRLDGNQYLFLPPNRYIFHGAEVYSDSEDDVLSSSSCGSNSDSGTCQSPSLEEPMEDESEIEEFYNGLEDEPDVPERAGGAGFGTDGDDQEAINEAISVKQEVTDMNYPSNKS
Put plainly: Mass spectrometry based assay of SIRT1 activity. Set-up: key to FOLD ACTIVATION MS: A: Fold activation >250%; B: Fold Activation <250%; C: no fold activation. The conditions noted are these: for EC50: activation of SIRT1, read-out: ED50 MS. It is filed as biochemical. The method, then: The mass spectrometry based assay utilizes a peptide having 20 amino acid residues as follows: […] The sequence of the peptide substrate is based on p53 with several modifications. […] Test compounds may be added to the reaction as described above. […] After the 25 minute incubation with SIRT1, 10 μL of 10% formic acid is added to stop the reaction. Reactions are sealed and frozen for later mass spec analysis. Determination of the mass of the substrate peptide allows for precise determination of the degree of acetylation (i.e. starting material) as compared to deacetylated peptide (product). […] This timepoint is the same as that used for test compounds and, within the linear range, the endpoint represents a change in velocity. For each of the above assays, SIRT1 protein was expressed and purified as follows. The SirT1 gene was cloned into a T7-promoter containing vector and transformed into BL21(DE3). The protein was expressed by induction with 1 mM IPTG as an N-terminal His-tag fusion protein at 18° C. overnight and harvested at 30,000×g. […] The protein was purified over a Ni-NTA column (Amersham) and fractions containing pure protein were pooled, concentrated and run over a sizing column (Sephadex S200 26/60 global). The peak containing soluble protein was collected and run on an Ion-exchange column (MonoQ). […] This protein was concentrated and dialyzed against dialysis buffer (20 mM Tris-HCl, 2 mM TCEP) overnight. The protein was aliquoted and frozen at −80° C. until further use.

Some results are limits rather than exact numbers.

In the case of `COc1ccc(C(=O)Nc2cccc(-c3nc4ncccc4o3)c2)cc1Cl` [Compound 110], the EC50 is 101 to 150 µM.

With `COc1ccc(C(=O)Nc2cccc(-c3cn4ccc(C)cc4n3)c2)c(OC)c1` [Compound 128], the “FOLD ACTIVATION MS” value is reported as “B (Fold Activation <250%)” and the EC50 is less than 50 µM.

On to `COc1ccc(C(=O)Nc2cccc(-c3nc4cc(C(C)C)ccc4o3)c2)cc1OC` [Compound 122], for which the EC50 lay in the range of 101 to 150 µM.

Turning to `COc1ccc(C(=O)Nc2cccc(-c3nc4cccnc4o3)c2)cc1OC` [Compound 112], the “FOLD ACTIVATION MS” value is listed as “B (Fold Activation <250%)” and the EC50 is less than 50 µM.

Take `COC(=O)c1cc(NC(=O)c2cc(OC)c(OC)c(OC)c2)cc(-c2nc3ccncc3s2)c1` [Compound 133, methyl 3-(thiazolo[5,4-c]pyridin-2-yl)-5-(3,4,5-trimethoxybenzamido)benzoate]: the “FOLD ACTIVATION MS” value is recorded as “B (Fold Activation <250%)” and the EC50 was less than 50 µM.

As to `COc1ccc(C(=O)Nc2cccc(-c3cnc4ccccc4n3)c2)cc1OC` [Compound 116], the EC50 was 101 to 150 µM.

In the case of `COc1ccc(C(=O)Nc2cccc(-c3nc4ncccc4o3)c2)cc1` [Compound 54], the EC50 was more than 150 µM.

Turning to `CN(C)c1cccc(C(=O)Nc2cc(C(=O)N3CCNCC3)cc(-c3nc4ncccc4o3)c2)c1` [Compound 138], the “FOLD ACTIVATION MS” value was “B (Fold Activation <250%)” and the EC50 was less than 50 µM.

For the compound `COc1cc(C(=O)Nc2cccc(-c3nc4ccccc4c(=O)o3)c2)cc(OC)c1OC` [Compound 125], the “FOLD ACTIVATION MS” value is reported as “B (Fold Activation <250%)” and the EC50 is 51 to 100 µM.

Consider `COc1cc(C(=O)Nc2cc(C(=O)O)cc(-c3nc4ccncc4s3)c2)cc(OC)c1OC` [Compound 134, 3-(thiazolo[5,4-c]pyridin-2-yl)-5-(3,4,5-trimethoxybenzamido)benzoic acid], for which the “FOLD ACTIVATION MS” value is “B (Fold Activation <250%)” and the EC50 is less than 50 µM.

As to `COc1ccc(C(=O)Nc2cc(C(=O)N3CCNCC3)cc(-c3nc4ncccc4o3)c2)c(OC)c1` [Compound 139], the “FOLD ACTIVATION MS” value was “B (Fold Activation <250%)” and the EC50 is less than 50 µM.

On to `COc1cc(C(=O)Nc2cccc(-c3cn4ccc(C)cc4n3)c2)cc(OC)c1OC` [Compound 129], for which the “FOLD ACTIVATION MS” value is recorded as “A (Fold activation >250%)” and the EC50 was less than 50 µM.

In the case of `CN(C)c1cccc(C(=O)Nc2cccc(-c3nc4ccncc4s3)c2)c1` [Compound 113], the “FOLD ACTIVATION MS” value is recorded as “B (Fold Activation <250%)” and the EC50 was less than 50 µM.

Consider `COc1ccccc1C(=O)Nc1cccc(-c2cn3ccsc3n2)c1` [Compound 132], for which the “FOLD ACTIVATION MS” value was “A (Fold activation >250%)” and the EC50 is less than 50 µM.

On to `COc1ccc(C(=O)Nc2cccc(-c3nc4cc(C)ccc4[nH]3)c2)cc1OC` [Compound 117], for which the “FOLD ACTIVATION MS” value was “A (Fold activation >250%)” and the EC50 is less than 50 µM.

With `COc1ccc(C(=O)Nc2cccc(-c3cn4ccc(C)cc4n3)c2)cc1` [Compound 130], the “FOLD ACTIVATION MS” value was “B (Fold Activation <250%)” and the EC50 was less than 50 µM.

`COc1ccc(C(=O)Nc2cc(C(=O)N3CCNCC3)cc(-c3nc4ncccc4o3)c2)cc1OC` [Compound 164]: the “FOLD ACTIVATION MS” value is recorded as “B (Fold Activation <250%)” and the EC50 was less than 50 µM.

For `COc1cccc(OC)c1C(=O)Nc1cccc(-c2nc3ccccc3o2)c1` [Compound 119], the “FOLD ACTIVATION MS” value is reported as “B (Fold Activation <250%)” and the EC50 is less than 50 µM.

As for `COc1ccc(C(=O)Nc2cccc(-c3nc4ccncc4s3)c2)cc1OC` [Compound 114], the “FOLD ACTIVATION MS” value is “A (Fold activation >250%)” and the EC50 was less than 50 µM.

Consider `COc1cccc(C(=O)Nc2cccc(-c3nc4cc(Cl)cc(Cl)c4o3)c2)c1` [Compound 121], for which the “FOLD ACTIVATION MS” value is given as “C” and the EC50 was more than 150 µM.
